Results reported in patent US9522184B2, “CD89 activation in therapy” (CSL BEHRING AG, priority 2010, dated 2016).

Assays:
neutrophils = assay: Pan-caspase inhibition of IgA-mediated neutrophil cell death; assay type: cell-based, human; details: qVD-OPh 20 μM, 24 hours, in the presence and absence of LPS and GM-CSF; FIG. 6
From the text: (§1) Antibodies: Anti-CD89 (Clone A59) (both unlabeled and phycoerythrin [PE]-conjugated), and PE-conjugated immunoglobulin G1 (IgG1) isotype control were from BD Biosciences (Basel, Switzerland). Goat anti-mouse IgG (GaM) and unlabelled control IgG1 were obtained from Jackson ImmunoResearch Laboratories (distributed by Milan Analytica, La Roche, Switzerland). Anti-Fas agonistic mAb (CH11) was obtained from LabForce AG (Nunningen, Switzerland). Pooled serum IgA was obtained from CSL Behring AG (Wankdorf, Bern), and was prepared as follows: IgA was purified from human plasma and side-fraction of the IVIg/SCIg manufacturing process by affinity chromatography using CaptureSelect Human IgA resin from BAC (Naarden, Netherlands). […] Cell purity was assessed by staining with Diff-Quik (Baxter, Düdingen, Switzerland) and light microscopy analysis. […] Immunofluorescence: CD89 surface expression was analyzed by flow cytometry following incubation of the cells with saturating concentrations of PE-conjugated anti-CD89 and isotype-matched PE-conjugated control mAbs. […] The caspase inhibitor qVD-OPh (quinoline-Val-Asp-difluorophenoxymethylketone) was used at […] Determination of Cell Death and Apoptosis: Cell death was assessed by uptake of 1 μM ethidium bromide and flow cytometric analysis (FACSCalibur, Becton Dickinson). […]

human neutrophils = assay: CD89 surface expression on neutrophils by flow cytometry after inflammatory stimulus; assay type: cell-based
From the text: as §1

Compound	effect on plasma IgA-mediated neutrophil cell death (neutrophils)	CD89 expression on neutrophils (human neutrophils; 8 hours, 100 ng/ml LPS or 10 ng/ml GM-CSF, blood neutrophils of healthy volunteers, FIG. 1A)	time to significant upregulation of CD89 expression (human neutrophils; time course, FIG. 1B) [h]
CC(C)[C@H](NC(=O)c1ccc2ccccc2n1)C(=O)N[C@@H](CC(=O)O)C(=O)COc1c(F)cccc1F [qVD-OPh, quinoline-Val-Asp-difluorophenoxymethylketone]	blocked	–	–
GM-CSF: Cytokine (Novartis Pharma) used as inflammatory stimulus	–	CD89 expression was increased	4
